From patent US20240025862A1, “SUBSTITUTED N-PHENYLURACILS AND SALTS THEREOF, AND USE THEREOF AS HERBICIDAL ACTIVE SUBSTANCES” (Bayer Aktiengesellschaft, priority 2020, published 2024)

What was measured:
Assay type in all cases: in vivo
[1] = test system: Abutilon theophrasti (ABUTH); assay: Post-emergence herbicidal action, greenhouse pot test; conditions: rated visually after about 3 weeks vs untreated controls, 100% = plants have died; for pest or weed control at 1.25 g/ha / pest or weed control at 5 g/ha / pest or weed control at 20 g/ha: Abutilon theophrasti, 504 h; for pest or weed control at 1.25 g/ha: read-out: Post-emergence action at 1.25 g/ha against ABUTH in %; for pest or weed control at 5 g/ha: read-out: Post-emergence action at 5 g/ha against ABUTH in %; for pest or weed control at 20 g/ha: read-out: Post-emergence action at 20 g/ha against ABUTH in %
How it was run: (§1)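 Greenhouse-grown weeds in sandy loam were sprayed post-emergence at the one-leaf stage, 2–3 weeks after sowing. Compounds were formulated as WP or EC in water with 0.5% additive at 600 l/ha, at rates of 20 g/ha or less. Visual rating after about 3 weeks used a scale from 0% (like untreated control) to 100% (plants dead).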

[2] = test system: Avena fatua (AVEFA); assay: as above; conditions: rated visually after about 3 weeks vs untreated controls, 100% = plants have died; for pest or weed control at 20 g/ha: Avena fatua, 504 h, read-out: Post-emergence action at 20 g/ha against AVEFA in %
How it was run: as §1

[3] = test system: Lolium rigidum (LOLRI); assay: as above; conditions: dosage 20 g/ha; for pest or weed control at 20 g/ha: Lolium rigidum, 504 h, read-out: Post-emergence action against LOLRI in %
How it was run: as §1

[4] = test system: Polygonum convolvulus (POLCO); assay: as above
How it was run: as §1

[5] = test system: Veronica persica (VERPE); assay: as above
How it was run: as §1

[6] = test system: Amaranthus retroflexus (AMARE); assay: as above; conditions: rated visually after about 3 weeks vs untreated controls, 100% = plants have died; for pest or weed control at 1.25 g/ha / pest or weed control at 5 g/ha / pest or weed control at 20 g/ha: Amaranthus retroflexus, 504 h; for pest or weed control at 1.25 g/ha: read-out: Post-emergence action at 1.25 g/ha against AMARE in %; for pest or weed control at 5 g/ha: read-out: Post-emergence action at 5 g/ha against AMARE in %; for pest or weed control at 20 g/ha: read-out: Post-emergence action at 20 g/ha against AMARE in %
How it was run: as §1

[7] = test system: Pharbitis purpurea (PHBPU); assay: as above; conditions: for pest or weed control at 1.25 g/ha / pest or weed control at 5 g/ha / pest or weed control at 20 g/ha: Ipomoea purpurea, 504 h, read-out: Post-emergence action against PHBPU in %
How it was run: as §1

[8] = test system: Viola tricolor (VIOTR); assay: as above; conditions: for pest or weed control at 1.25 g/ha / pest or weed control at 5 g/ha / pest or weed control at 20 g/ha: Viola tricolor, 504 h, read-out: Post-emergence action against VIOTR
How it was run: as §1

[9] = test system: Triticum aestivum (TRZAS); assay: Post-emergence crop plant compatibility, greenhouse pot test; conditions: vs untreated controls
How it was run: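 Percent crop injury was judged by eye roughly three weeks after treatment, relative to untreated plants, where 100% meant death. Application was a post-emergence spray at the one-leaf stage, 600 l/ha water volume with 0.5% additive; letters a, b, c denote differing dose rates.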

[10] = test system: Oryza sativa (ORYSA); assay: Post-emergence crop plant compatibility, greenhouse pot test (also comparative test C); conditions: vs untreated controls
How it was run: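 Rice and other crops sprayed post-emergence at one-leaf stage (2–3 weeks after sowing) with WP or EC formulations plus 0.5% additive at 600 l/ha water. Visual rating about 3 weeks later versus untreated controls (100% = dead, 0% = like control); suffixes a–c denote different doses.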

[11] = test system: Echinochloa crus-galli (ECHCG); assay: Post-emergence herbicidal action, greenhouse pot test (also comparative test C); conditions: for Post-emergence action at 1.25 g/ha against ECHCG in %: rated visually after about 3 weeks vs untreated controls, 100% = plants have died; for pest or weed control at 5 g/ha / pest or weed control at 20 g/ha: Echinochloa crus-galli, 504 h, read-out: Post-emergence action against ECHCG in %
How it was run: (§2)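 Visual rating against untreated controls, about 3 weeks after spraying, from 0% (like control) to 100% (plants dead). Weeds were treated at the one-leaf stage, 2–3 weeks after sowing in sandy loam, with aqueous WP/EC spray containing 0.5% additive at 600 l/ha. Doses were ≤20 g/ha, or ≤5 g/ha for comparative test C.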

[12] = test system: Alopecurus myosuroides (ALOMY); assay: as above; conditions: rated visually after about 3 weeks vs untreated controls, 100% = plants have died; for pest or weed control at 5 g/ha / pest or weed control at 20 g/ha: Alopecurus myosuroides, 504 h; for pest or weed control at 5 g/ha: read-out: Post-emergence action at 5 g/ha against ALOMY in %; for pest or weed control at 20 g/ha: read-out: Post-emergence action at 20 g/ha against ALOMY in %
How it was run: as §2

[13] = test system: Matricaria inodora (MATIN); assay: as above
How it was run: as §2

[14] = test system: Setaria viridis (SETVI); assay: as above; conditions: for pest or weed control at 20 g/ha / pest or weed control at 1.25 g/ha / pest or weed control at 5 g/ha: Setaria viridis, 504 h; for pest or weed control at 20 g/ha: read-out: Post-emergence action against SETVI; for pest or weed control at 1.25 g/ha / pest or weed control at 5 g/ha: read-out: Post-emergence action against SETVI in %
How it was run: as §2

[15] = Veronica persica, 504 h, 5 g/ha, read-out: Post-emergence action against VERPE
[16] = Veronica persica, 504 h, 20 g/ha, read-out: Post-emergence action against VERPE
[17] = Tripleurospermum inodorum, 504 h, dosage 1.25 g/ha, read-out: Post-emergence action against MATIN in %
[18] = Tripleurospermum inodorum, 504 h, dosage 20 g/ha, read-out: Post-emergence action against MATIN in %

Cn1c(C(F)(F)F)cc(=O)n(-c2cc(Oc3ccccc3OCC(=O)OCCOC(F)(F)F)c(Cl)cc2F)c1=O [I.7-41]
0%: Post-emergence action against TRZAS (crop plant compatibility) ([9]; 1.25 g/ha) | Post-emergence action against ORYSA (crop plant compatibility) ([10]; 1.25 g/ha)
100%: Post-emergence action at 1.25 g/ha against ABUTH in % ([1]; 1.25 g/ha) | Post-emergence action at 5 g/ha against ABUTH in % ([1]; 5 g/ha) | Post-emergence action at 20 g/ha against ABUTH in % ([1]; 20 g/ha) | Post-emergence action against POLCO in % ([4]; dosage 5 g/ha) | Post-emergence action against POLCO in % ([4]; dosage 20 g/ha) | Post-emergence action against VERPE ([5]; 5 g/ha) | Post-emergence action against VERPE ([5]; 20 g/ha) | Post-emergence action at 1.25 g/ha against AMARE in % ([6]; 1.25 g/ha) | Post-emergence action at 5 g/ha against AMARE in % ([6]; 5 g/ha) | Post-emergence action at 20 g/ha against AMARE in % ([6]; 20 g/ha) | Post-emergence action against PHBPU in % ([7]; dosage 1.25 g/ha) | Post-emergence action against PHBPU in % ([7]; dosage 5 g/ha) | Post-emergence action against PHBPU in % ([7]; dosage 20 g/ha) | Post-emergence action against VIOTR ([8]; 1.25 g/ha) | Post-emergence action against VIOTR ([8]; 5 g/ha) | Post-emergence action against VIOTR ([8]; 20 g/ha) | Post-emergence action against ECHCG in % ([11]; dosage 5 g/ha) | Post-emergence action against ECHCG in % ([11]; dosage 20 g/ha) | Post-emergence action at 1.25 g/ha against ALOMY in % ([12]; 1.25 g/ha) | Post-emergence action at 5 g/ha against ALOMY in % ([12]; 5 g/ha) | Post-emergence action at 20 g/ha against ALOMY in % ([12]; 20 g/ha) | Post-emergence action against MATIN in % ([13]; dosage 20 g/ha) | Post-emergence action against SETVI ([14]; 20 g/ha) | Post-emergence action against SETVI in % ([14]; dosage 1.25 g/ha) | Post-emergence action against SETVI in % ([14]; dosage 5 g/ha)
90%: Post-emergence action at 1.25 g/ha against ECHCG in % [11] | Post-emergence action against MATIN in % ([13]; dosage 1.25 g/ha) | Post-emergence action against MATIN in % ([13]; dosage 5 g/ha)
80%: Post-emergence action at 5 g/ha against AVEFA in % ([2]; 5 g/ha) | Post-emergence action at 20 g/ha against AVEFA in % ([2]; 20 g/ha) | Post-emergence action against LOLRI in % [3] | Post-emergence action against VERPE ([5]; 1.25 g/ha)
20%: Post-emergence action against TRZAS (crop plant compatibility) ([9]; 5 g/ha) | Post-emergence action against ORYSA (crop plant compatibility) ([10]; 5 g/ha)

Cn1c(C(F)(F)F)cc(=O)n(-c2cc(Oc3ccccc3OCC(=O)OCC3CCCO3)c(Cl)cc2F)c1=O (centres unmarked) [I.7-71, Tetrahydrofuran-2-ylmethyl (2-{2-chloro-4-fluoro-5-[3-methyl-2,6-dioxo-4-(trifluoromethyl)-3,6-dihydropyrimidin-1(2H)-yl]phenoxy}phenoxy)acetate]
20%: Post-emergence action against ORYSA (crop plant compatibility) ([10]; 1.25 g/ha)
90%: pest or weed control at 20 g/ha ([2]; 20 g/ha)
0%: Post-emergence action against TRZAS (crop plant compatibility) ([9]; 1.25 g/ha)
80%: pest or weed control at 20 g/ha [3] | pest or weed control at 5 g/ha ([12]; 5 g/ha) | pest or weed control at 20 g/ha ([12]; 20 g/ha) | pest or weed control at 1.25 g/ha [13, 17]
100%: pest or weed control at 1.25 g/ha ([1]; 1.25 g/ha) | pest or weed control at 5 g/ha ([1]; 5 g/ha) | pest or weed control at 20 g/ha ([1]; 20 g/ha) | pest or weed control at 5 g/ha ([4]; Fallopia convolvulus, 504 h, dosage 5 g/ha, read-out: Post-emergence action against POLCO in %) | pest or weed control at 20 g/ha ([4]; Fallopia convolvulus, 504 h, dosage 20 g/ha, read-out: Post-emergence action against POLCO in %) | pest or weed control at 1.25 g/ha ([5]; Veronica persica, 504 h, 1.25 g/ha, read-out: Post-emergence action against VERPE) | pest or weed control at 5 g/ha [5, 15] | pest or weed control at 20 g/ha [5, 16] | pest or weed control at 1.25 g/ha ([6]; 1.25 g/ha) | pest or weed control at 5 g/ha ([6]; 5 g/ha) | pest or weed control at 20 g/ha ([6]; 20 g/ha) | pest or weed control at 1.25 g/ha ([7]; dosage 1.25 g/ha) | pest or weed control at 5 g/ha ([7]; dosage 5 g/ha) | pest or weed control at 20 g/ha ([7]; dosage 20 g/ha) | pest or weed control at 1.25 g/ha ([8]; 1.25 g/ha) | pest or weed control at 5 g/ha ([8]; 5 g/ha) | pest or weed control at 20 g/ha ([8]; 20 g/ha) | Post-emergence action at 1.25 g/ha against ECHCG in % [11] | pest or weed control at 5 g/ha ([11]; dosage 5 g/ha) | pest or weed control at 20 g/ha ([11]; dosage 20 g/ha) | pest or weed control at 20 g/ha [13, 18] | pest or weed control at 20 g/ha ([14]; 20 g/ha) | pest or weed control at 1.25 g/ha ([14]; dosage 1.25 g/ha) | pest or weed control at 5 g/ha ([14]; dosage 5 g/ha)

Cn1c(C(F)(F)F)cc(=O)n(-c2cc(Oc3ccccc3OCC(=O)OCC[N+](=O)[O-])c(Cl)cc2F)c1=O [I.7-183, 2-Nitroethyl (2-{2-chloro-4-fluoro-5-[3-methyl-2,6-dioxo-4-(trifluoromethyl)-3,6-dihydropyrimidin-1(2H)-yl]phenoxy}phenoxy)acetate]
20%: Post-emergence action against TRZAS (crop plant compatibility) ([9]; 1.25 g/ha)
90%: pest or weed control at 20 g/ha ([2]; 20 g/ha)
80%: pest or weed control at 20 g/ha [3] | pest or weed control at 1.25 g/ha ([7]; dosage 1.25 g/ha) | pest or weed control at 5 g/ha ([12]; 5 g/ha) | pest or weed control at 1.25 g/ha [13, 17]
100%: pest or weed control at 1.25 g/ha ([1]; 1.25 g/ha) | pest or weed control at 5 g/ha ([1]; 5 g/ha) | pest or weed control at 20 g/ha ([1]; 20 g/ha) | pest or weed control at 5 g/ha [5, 15] | pest or weed control at 20 g/ha [5, 16] | pest or weed control at 1.25 g/ha ([6]; 1.25 g/ha) | pest or weed control at 5 g/ha ([6]; 5 g/ha) | pest or weed control at 20 g/ha ([6]; 20 g/ha) | pest or weed control at 5 g/ha ([7]; dosage 5 g/ha) | pest or weed control at 20 g/ha ([7]; dosage 20 g/ha) | pest or weed control at 1.25 g/ha ([8]; 1.25 g/ha) | pest or weed control at 5 g/ha ([8]; 5 g/ha) | pest or weed control at 20 g/ha ([8]; 20 g/ha) | pest or weed control at 5 g/ha ([11]; dosage 5 g/ha) | pest or weed control at 20 g/ha ([11]; dosage 20 g/ha) | pest or weed control at 20 g/ha ([12]; 20 g/ha) | pest or weed control at 5 g/ha ([13]; Tripleurospermum inodorum, 504 h, dosage 5 g/ha, read-out: Post-emergence action against MATIN in %) | pest or weed control at 20 g/ha [13, 18] | pest or weed control at 20 g/ha ([14]; 20 g/ha) | pest or weed control at 1.25 g/ha ([14]; dosage 1.25 g/ha) | pest or weed control at 5 g/ha ([14]; dosage 5 g/ha)
0%: Post-emergence action against ORYSA (crop plant compatibility) ([10]; 1.25 g/ha)
